In patent US20230398130A1, “METHODS AND COMPOSITIONS FOR DIFFERENTIATING STEM CELLS” (Massachusetts Institute of Technology, priority 2020, published 2023):

How the values were obtained:
ISC-enriched organoids [1] = test: Primary screen, 384-well 2.5-D organoid differentiation (ENR+CD, 6 days): carbachol-induced lysozyme secretion (LYZ.S); format: cell-based, murine; details: primary screen; for Dose.FC.LYZ.S: FC vs plate median; for Z.LYZ.S: standard z score; for SSMD.LYZ.S: strictly standardized mean difference
From the text: (§1) High-throughput screening.

ISC-enriched organoids [2] = test: Primary screen, 384-well 2.5-D organoid differentiation (ENR+CD, 6 days, Target Selective Inhibitor Library, vs whole-plate median): ATP (CellTiter-Glo 3D, CTG); details: for Dose.FC.CTG / SSMD.CTG: primary screen; for Dose.FC.CTG: FC vs plate median; for Z.CTG: standard z score of FC; for SSMD.CTG: strictly standardized mean difference
ISC-enriched organoids [3] = test: Primary screen, 384-well 2.5-D organoid differentiation (ENR+CD, 6 days): basal lysozyme secretion (LYZ.NS); format: cell-based, murine; details: for Dose.FC.LYZ.NS / SSMD.LYZ.NS: primary screen; for Dose.FC.LYZ.NS: FC vs plate median; for Z.LYZ.NS: standard z score of FC; for SSMD.LYZ.NS: strictly standardized mean difference
From the text: as §1

[4] = 1st of the 4 dose lines of the treatment (dose not given)
[5] = 2nd of the 4 dose lines of the treatment (dose not given)
[6] = 3rd of the 4 dose lines of the treatment (dose not given)
[7] = 4th of the 4 dose lines of the treatment (dose not given)

Compound	Dose.FC.LYZ.S (ISC-enriched organoids [1]; Dose 0.08 uM)	Dose.FC.LYZ.S (ISC-enriched organoids [1]; Dose 0.40 uM)	Dose.FC.LYZ.S (ISC-enriched organoids [1]; Dose 2.00 uM)	Dose.FC.LYZ.S (ISC-enriched organoids [1]; Dose 10.00 uM)	Dose.FC.CTG (ISC-enriched organoids [2]; Dose 0.08 uM)	Z.CTG (ISC-enriched organoids [2]; Dose 0.08 uM)	Dose.FC.CTG (ISC-enriched organoids [2]; Dose 0.40 uM)	Z.CTG (ISC-enriched organoids [2]; Dose 0.40 uM)	Dose.FC.CTG (ISC-enriched organoids [2]; Dose 2.00 uM)	Z.CTG (ISC-enriched organoids [2]; Dose 2.00 uM)	Dose.FC.CTG (ISC-enriched organoids [2]; Dose 10.00 uM)	Z.CTG (ISC-enriched organoids [2]; Dose 10.00 uM)	Dose.FC.LYZ.NS (ISC-enriched organoids [3]; Dose 0.08 uM)	Z.LYZ.NS (ISC-enriched organoids [3]; Dose 0.08 uM)	Dose.FC.LYZ.NS (ISC-enriched organoids [3]; Dose 0.40 uM)	Z.LYZ.NS (ISC-enriched organoids [3]; Dose 0.40 uM)	Dose.FC.LYZ.NS (ISC-enriched organoids [3]; Dose 2.00 uM)	Z.LYZ.NS (ISC-enriched organoids [3]; Dose 2.00 uM)	Dose.FC.LYZ.NS (ISC-enriched organoids [3]; Dose 10.00 uM)	Z.LYZ.NS (ISC-enriched organoids [3]; Dose 10.00 uM)	other results
O=C(NCCN1CCOCC1)c1ccc(Cl)cc1 [Moclobemide (Ro 111163)]	0.147 log 2 fold change	0.094 log 2 fold change	0.012 log 2 fold change	0.019 log 2 fold change	0.146 log 2 fold change	0.348	0.106 log 2 fold change	0.252	0.116 log 2 fold change	0.276	0.042 log 2 fold change	0.100	0.075 log 2 fold change	0.654	0.121 log 2 fold change	1.055	0.001 log 2 fold change	0.011	−0.028 log 2 fold change	−0.243	Z.LYZ.S (ISC-enriched organoids [1]; [4]): 0.953; Z.LYZ.S (ISC-enriched organoids [1]; [5]): 0.607; Z.LYZ.S (ISC-enriched organoids [1]; [6]): 0.078; Z.LYZ.S (ISC-enriched organoids [1]; [7]): 0.123; SSMD.LYZ.S (ISC-enriched organoids [1]; [4]): 0.495; SSMD.LYZ.S (ISC-enriched organoids [1]; [5]): 0.348; SSMD.LYZ.S (ISC-enriched organoids [1]; [6]): 0.056; SSMD.LYZ.S (ISC-enriched organoids [1]; [7]): 0.135; SSMD.CTG (ISC-enriched organoids [2]; [4]): 0.257; SSMD.CTG (ISC-enriched organoids [2]; [5]): 0.148; SSMD.CTG (ISC-enriched organoids [2]; [6]): 0.227; SSMD.CTG (ISC-enriched organoids [2]; [7]): 0.115; SSMD.LYZ.NS (ISC-enriched organoids [3]; [4]): 0.302; SSMD.LYZ.NS (ISC-enriched organoids [3]; [5]): 0.415; SSMD.LYZ.NS (ISC-enriched organoids [3]; [6]): 0.007; SSMD.LYZ.NS (ISC-enriched organoids [3]; [7]): −0.219
Cc1ccccc1C(=O)Nc1ccc(C(=O)N2CCCC(N(C)C)c3ccccc32)cc1 (centres unmarked) [Mozavaptan]	–	–	–	–	–	0.765	–	0.562	–	0.259	–	−0.803	–	–	–	–	–	–	–	–	Z.LYZ.S (ISC-enriched organoids [1]; [4]): 0.557; Z.LYZ.S (ISC-enriched organoids [1]; [5]): 1.068; Z.LYZ.S (ISC-enriched organoids [1]; [6]): 0.688; Z.LYZ.S (ISC-enriched organoids [1]; [7]): −1.745; SSMD.LYZ.S (ISC-enriched organoids [1]; [4]): 0.266; SSMD.LYZ.S (ISC-enriched organoids [1]; [5]): 0.560; SSMD.LYZ.S (ISC-enriched organoids [1]; [6]): 0.775; SSMD.LYZ.S (ISC-enriched organoids [1]; [7]): −1.480; SSMD.CTG (ISC-enriched organoids [2]; [4]): 0.521; SSMD.CTG (ISC-enriched organoids [2]; [5]): 0.427; SSMD.CTG (ISC-enriched organoids [2]; [6]): 0.274; SSMD.CTG (ISC-enriched organoids [2]; [7]): −0.812; SSMD.LYZ.NS (ISC-enriched organoids [3]; [4]): 0.283; SSMD.LYZ.NS (ISC-enriched organoids [3]; [5]): −0.203; SSMD.LYZ.NS (ISC-enriched organoids [3]; [6]): 0.340; SSMD.LYZ.NS (ISC-enriched organoids [3]; [7]): −1.544
FC(F)(F)c1ccc(/C=C/c2nc(COc3ccc(CCCCn4ccnn4)cc3)co2)cc1 [Mubritinib (TAK 165)]	−0.119 log 2 fold change	−0.154 log 2 fold change	−0.299 log 2 fold change	−0.294 log 2 fold change	−0.524 log 2 fold change	−1.252	−0.340 log 2 fold change	−0.812	−0.530 log 2 fold change	−1.265	−0.519 log 2 fold change	−1.240	−0.057 log 2 fold change	−0.500	−0.194 log 2 fold change	−1.687	−0.224 log 2 fold change	−1.950	−0.240 log 2 fold change	−2.092	–
CCCCCCCCCCCCCCCCn1cc[n+](Cc2ccccc2)c1C.[I-] [NH125]	−0.114 log 2 fold change	−0.237 log 2 fold change	−0.358 log 2 fold change	−0.374 log 2 fold change	−0.347 log 2 fold change	−0.829	−0.508 log 2 fold change	−1.213	−1.106 log 2 fold change	−2.641	−1.787 log 2 fold change	−4.268	−0.035 log 2 fold change	−0.301	−0.188 log 2 fold change	−1.634	−0.219 log 2 fold change	−1.904	−0.263 log 2 fold change	−2.293	–
CC(C)(Cc1ccc2ccccc2c1)NC[C@@H](O)COc1cccc(Cl)c1C#N [NPS-2143]	0.147 log 2 fold change	−0.062 log 2 fold change	−0.161 log 2 fold change	−0.116 log 2 fold change	0.149 log 2 fold change	0.356	−0.195 log 2 fold change	−0.466	−0.246 log 2 fold change	−0.587	−0.118 log 2 fold change	−0.282	0.162 log 2 fold change	1.413	−0.048 log 2 fold change	−0.416	−0.077 log 2 fold change	−0.674	−0.069 log 2 fold change	−0.597	–
